ChEMBL document CHEMBL1201862, “PubChem BioAssay data set” (2004)
Values belong to the compound of their own block, whether it stands above or below them. Calls of active or inactive are those of the source.

How the values were obtained:
Mu-type opioid receptor = Mu-type opioid receptor (Homo sapiens, UniProt P35372); type: functional, cell-based;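 note: U2OS cells with beta-arrestin recruitment to OPRM1 by beta-gal complementation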
[1] = target: 5-hydroxytryptamine receptor 2A (Mus musculus, UniProt P35363); type: functional, cell-based;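 note: CHO-K1 cells with tagged receptor and beta-arrestin; agonist potency measured as compound-induced activation of the receptor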
[2] = target: Voltage-gated inwardly rectifying potassium channel KCNH2 (Homo sapiens, UniProt Q12809); settings: Potency;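 note: confirmatory quantitative high-throughput screen measuring inhibition of hERG channel activity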
Hexokinase-1 [3] = target: T1, Hexokinase-1 (Homo sapiens, UniProt P19367); assay: HK1 enzyme inhibition by HKDC1 hits, SAR follow-up, selectivity assay for HKDC1 inhibitor project, biochemical, set 2, resazurin fluorescence coupled readout (AID 588356); type: functional
Hexokinase HKDC1 [4] = target: T2, Hexokinase HKDC1 (Homo sapiens, UniProt Q2TB90); assay: HKDC1 hexokinase inhibitors, SAR follow-up, biochemical, set 2 (AID 588355); type: functional
T2 sequence (Q2TB90 whole entry): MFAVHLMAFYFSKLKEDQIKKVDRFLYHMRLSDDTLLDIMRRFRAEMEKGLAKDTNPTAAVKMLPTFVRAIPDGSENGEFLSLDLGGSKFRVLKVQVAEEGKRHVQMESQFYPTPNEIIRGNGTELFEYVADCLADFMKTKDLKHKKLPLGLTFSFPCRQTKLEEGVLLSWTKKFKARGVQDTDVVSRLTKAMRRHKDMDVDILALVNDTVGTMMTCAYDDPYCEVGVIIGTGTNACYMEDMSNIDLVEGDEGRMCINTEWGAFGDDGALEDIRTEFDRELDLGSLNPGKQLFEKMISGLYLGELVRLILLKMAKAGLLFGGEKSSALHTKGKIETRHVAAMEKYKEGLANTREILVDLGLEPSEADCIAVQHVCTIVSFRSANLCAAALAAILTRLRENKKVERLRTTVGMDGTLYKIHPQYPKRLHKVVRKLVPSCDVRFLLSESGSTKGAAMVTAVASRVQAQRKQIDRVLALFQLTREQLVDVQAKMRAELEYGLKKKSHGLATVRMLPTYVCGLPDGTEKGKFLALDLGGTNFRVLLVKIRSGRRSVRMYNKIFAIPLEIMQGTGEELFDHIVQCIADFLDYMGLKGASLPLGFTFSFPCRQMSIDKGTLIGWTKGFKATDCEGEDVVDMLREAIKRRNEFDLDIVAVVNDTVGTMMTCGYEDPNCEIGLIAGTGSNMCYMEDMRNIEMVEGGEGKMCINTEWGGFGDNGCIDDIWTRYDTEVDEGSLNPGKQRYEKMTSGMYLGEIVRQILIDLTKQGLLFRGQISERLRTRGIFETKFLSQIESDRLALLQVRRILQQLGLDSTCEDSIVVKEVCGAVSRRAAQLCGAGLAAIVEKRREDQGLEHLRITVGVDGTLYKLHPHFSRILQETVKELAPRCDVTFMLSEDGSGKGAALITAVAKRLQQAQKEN

Phospholipase D1 [5] = target: T3, Phospholipase D1 (Homo sapiens, UniProt Q13393); assay: PLD1 inhibitor potency in cells, dose response (AID 602151); type: functional;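 note: cellular PLD1 assay in Calu-1 cells stimulated with PMA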
T3 sequence (Q13393 whole entry): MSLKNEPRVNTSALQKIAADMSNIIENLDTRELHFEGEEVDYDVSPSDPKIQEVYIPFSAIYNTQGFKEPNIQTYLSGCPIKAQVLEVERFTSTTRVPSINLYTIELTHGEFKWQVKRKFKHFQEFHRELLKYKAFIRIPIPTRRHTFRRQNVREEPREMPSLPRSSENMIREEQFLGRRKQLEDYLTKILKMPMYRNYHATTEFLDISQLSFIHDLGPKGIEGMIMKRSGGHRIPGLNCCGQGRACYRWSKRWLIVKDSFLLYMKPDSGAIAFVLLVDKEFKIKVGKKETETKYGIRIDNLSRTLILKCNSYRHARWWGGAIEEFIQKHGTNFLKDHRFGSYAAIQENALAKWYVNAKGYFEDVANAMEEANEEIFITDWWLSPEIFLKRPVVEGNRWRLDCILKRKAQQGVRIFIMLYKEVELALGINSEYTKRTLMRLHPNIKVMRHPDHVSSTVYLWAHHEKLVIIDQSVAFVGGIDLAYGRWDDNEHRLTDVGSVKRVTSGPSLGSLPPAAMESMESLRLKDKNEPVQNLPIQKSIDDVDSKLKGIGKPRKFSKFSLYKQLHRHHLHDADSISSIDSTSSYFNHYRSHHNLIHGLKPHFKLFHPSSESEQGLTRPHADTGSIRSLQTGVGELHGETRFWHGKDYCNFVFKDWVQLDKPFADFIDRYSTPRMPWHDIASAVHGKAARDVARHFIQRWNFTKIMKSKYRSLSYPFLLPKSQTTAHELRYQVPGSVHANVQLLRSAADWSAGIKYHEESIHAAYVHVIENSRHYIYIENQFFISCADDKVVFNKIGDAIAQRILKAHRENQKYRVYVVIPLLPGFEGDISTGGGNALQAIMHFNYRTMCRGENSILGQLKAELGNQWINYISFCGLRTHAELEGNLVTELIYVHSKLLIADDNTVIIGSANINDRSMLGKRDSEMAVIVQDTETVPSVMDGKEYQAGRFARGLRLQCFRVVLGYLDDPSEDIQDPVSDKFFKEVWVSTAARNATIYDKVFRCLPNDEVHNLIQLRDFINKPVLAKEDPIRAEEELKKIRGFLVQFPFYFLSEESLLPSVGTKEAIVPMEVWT

Phospholipase D2 [6] = target: T4, Phospholipase D2 (Homo sapiens, UniProt O14939); assay: PLD2 inhibitor potency in cells, dose response (AID 602147); type: functional;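 note: cellular assay in HEK293 cells overexpressing GFP-tagged PLD2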
Phospholipase D1 [7] = target: T3, Phospholipase D1; assay: PLD1 purified enzyme concentration response. [Related pubchem assays (depositor defined):AID588854]; type: functional
Phospholipase D2 [8] = target: T4, Phospholipase D2; assay: PLD2 purified enzyme concentration response. [Related pubchem assays (depositor defined):AID588854]; type: functional
Hexokinase-1 [9] = target: T1, Hexokinase-1; assay: SAR analysis of small molecule inhibitors of hexokinase domain containing I (HKDC1) in the hexokinase 1 selectivity assay. [Related pubchem assays (depositor defined):AID493160, AID493190]; type: functional
Hexokinase HKDC1 [10] = target: T2, Hexokinase HKDC1; assay: SAR analysis of small molecule inhibitors of hexokinase domain containing I (HKDC1). [Related pubchem assays (depositor defined):AID493160, AID493190]; type: functional

T4 sequence (O14939 whole entry): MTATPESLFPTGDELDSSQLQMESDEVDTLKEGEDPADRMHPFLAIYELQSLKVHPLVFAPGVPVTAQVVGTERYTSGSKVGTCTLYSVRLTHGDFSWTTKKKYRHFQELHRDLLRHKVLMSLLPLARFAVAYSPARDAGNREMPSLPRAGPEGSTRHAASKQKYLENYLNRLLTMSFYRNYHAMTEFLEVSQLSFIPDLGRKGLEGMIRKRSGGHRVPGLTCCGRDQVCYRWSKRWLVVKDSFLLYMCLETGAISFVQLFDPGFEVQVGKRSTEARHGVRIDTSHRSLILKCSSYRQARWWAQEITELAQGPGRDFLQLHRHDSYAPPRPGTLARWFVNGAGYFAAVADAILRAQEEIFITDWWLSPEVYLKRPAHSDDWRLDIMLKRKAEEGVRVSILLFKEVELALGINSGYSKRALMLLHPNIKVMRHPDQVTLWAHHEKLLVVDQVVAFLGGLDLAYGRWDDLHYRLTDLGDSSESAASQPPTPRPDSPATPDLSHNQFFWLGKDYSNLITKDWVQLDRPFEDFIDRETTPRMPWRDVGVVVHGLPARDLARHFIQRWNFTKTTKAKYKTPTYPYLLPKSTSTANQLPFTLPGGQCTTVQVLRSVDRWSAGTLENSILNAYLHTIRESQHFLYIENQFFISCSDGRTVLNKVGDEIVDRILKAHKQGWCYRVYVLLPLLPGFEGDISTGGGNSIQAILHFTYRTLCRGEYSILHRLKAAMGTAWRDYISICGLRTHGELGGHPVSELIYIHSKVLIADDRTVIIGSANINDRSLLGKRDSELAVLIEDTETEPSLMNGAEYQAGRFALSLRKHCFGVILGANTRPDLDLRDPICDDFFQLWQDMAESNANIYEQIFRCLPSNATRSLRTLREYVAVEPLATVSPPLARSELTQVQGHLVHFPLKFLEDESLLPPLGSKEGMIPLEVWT
T1 sequence (P19367 whole entry): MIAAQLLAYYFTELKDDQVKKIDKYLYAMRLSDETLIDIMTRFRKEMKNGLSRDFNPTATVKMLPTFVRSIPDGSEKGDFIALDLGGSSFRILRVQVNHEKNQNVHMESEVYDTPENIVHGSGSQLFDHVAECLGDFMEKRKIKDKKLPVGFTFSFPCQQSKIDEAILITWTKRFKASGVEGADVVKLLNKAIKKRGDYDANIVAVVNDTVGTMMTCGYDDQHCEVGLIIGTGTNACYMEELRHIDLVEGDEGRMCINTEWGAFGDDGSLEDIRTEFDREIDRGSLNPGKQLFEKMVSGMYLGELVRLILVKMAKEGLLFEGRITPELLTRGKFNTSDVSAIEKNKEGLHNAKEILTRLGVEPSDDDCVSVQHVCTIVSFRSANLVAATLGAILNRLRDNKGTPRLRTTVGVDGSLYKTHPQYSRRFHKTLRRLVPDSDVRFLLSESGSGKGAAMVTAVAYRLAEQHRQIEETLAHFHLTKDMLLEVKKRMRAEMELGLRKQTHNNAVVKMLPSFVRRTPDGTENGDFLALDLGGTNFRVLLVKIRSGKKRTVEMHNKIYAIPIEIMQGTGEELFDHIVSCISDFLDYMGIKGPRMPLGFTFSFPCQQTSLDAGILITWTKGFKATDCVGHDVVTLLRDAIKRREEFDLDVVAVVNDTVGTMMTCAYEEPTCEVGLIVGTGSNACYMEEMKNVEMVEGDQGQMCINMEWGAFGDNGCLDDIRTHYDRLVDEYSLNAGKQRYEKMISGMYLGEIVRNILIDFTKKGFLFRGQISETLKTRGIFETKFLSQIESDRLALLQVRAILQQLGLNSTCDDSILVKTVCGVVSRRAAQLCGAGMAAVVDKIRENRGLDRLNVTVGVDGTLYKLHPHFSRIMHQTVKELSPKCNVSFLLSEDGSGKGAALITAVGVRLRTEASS
5-hydroxytryptamine receptor 2A, sequence (P35363 whole entry): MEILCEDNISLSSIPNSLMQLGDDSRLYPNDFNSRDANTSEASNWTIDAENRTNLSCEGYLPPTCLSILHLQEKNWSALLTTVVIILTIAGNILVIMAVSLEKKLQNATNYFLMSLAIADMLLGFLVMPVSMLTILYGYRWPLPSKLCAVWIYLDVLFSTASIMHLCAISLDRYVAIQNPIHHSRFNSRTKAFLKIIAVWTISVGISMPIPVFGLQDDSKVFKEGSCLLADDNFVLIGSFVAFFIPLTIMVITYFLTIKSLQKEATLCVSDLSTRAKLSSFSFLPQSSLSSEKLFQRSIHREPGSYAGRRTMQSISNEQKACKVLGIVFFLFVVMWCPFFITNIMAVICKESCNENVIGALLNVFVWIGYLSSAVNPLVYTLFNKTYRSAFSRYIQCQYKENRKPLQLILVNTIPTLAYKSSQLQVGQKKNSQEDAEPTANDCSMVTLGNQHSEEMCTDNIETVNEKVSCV
Mu-type opioid receptor, sequence (P35372 whole entry): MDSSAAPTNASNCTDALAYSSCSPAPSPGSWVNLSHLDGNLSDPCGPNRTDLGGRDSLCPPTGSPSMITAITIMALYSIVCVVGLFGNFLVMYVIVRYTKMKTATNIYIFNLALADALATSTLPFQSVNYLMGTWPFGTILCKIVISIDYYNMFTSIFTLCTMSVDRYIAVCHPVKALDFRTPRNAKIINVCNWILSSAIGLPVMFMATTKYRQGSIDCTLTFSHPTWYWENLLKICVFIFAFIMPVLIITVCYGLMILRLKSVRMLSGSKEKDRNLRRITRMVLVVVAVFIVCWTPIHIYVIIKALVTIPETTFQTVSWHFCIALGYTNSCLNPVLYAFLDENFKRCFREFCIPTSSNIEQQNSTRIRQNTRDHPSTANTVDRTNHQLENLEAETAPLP
Voltage-gated inwardly rectifying potassium channel KCNH2, sequence (Q12809 whole entry): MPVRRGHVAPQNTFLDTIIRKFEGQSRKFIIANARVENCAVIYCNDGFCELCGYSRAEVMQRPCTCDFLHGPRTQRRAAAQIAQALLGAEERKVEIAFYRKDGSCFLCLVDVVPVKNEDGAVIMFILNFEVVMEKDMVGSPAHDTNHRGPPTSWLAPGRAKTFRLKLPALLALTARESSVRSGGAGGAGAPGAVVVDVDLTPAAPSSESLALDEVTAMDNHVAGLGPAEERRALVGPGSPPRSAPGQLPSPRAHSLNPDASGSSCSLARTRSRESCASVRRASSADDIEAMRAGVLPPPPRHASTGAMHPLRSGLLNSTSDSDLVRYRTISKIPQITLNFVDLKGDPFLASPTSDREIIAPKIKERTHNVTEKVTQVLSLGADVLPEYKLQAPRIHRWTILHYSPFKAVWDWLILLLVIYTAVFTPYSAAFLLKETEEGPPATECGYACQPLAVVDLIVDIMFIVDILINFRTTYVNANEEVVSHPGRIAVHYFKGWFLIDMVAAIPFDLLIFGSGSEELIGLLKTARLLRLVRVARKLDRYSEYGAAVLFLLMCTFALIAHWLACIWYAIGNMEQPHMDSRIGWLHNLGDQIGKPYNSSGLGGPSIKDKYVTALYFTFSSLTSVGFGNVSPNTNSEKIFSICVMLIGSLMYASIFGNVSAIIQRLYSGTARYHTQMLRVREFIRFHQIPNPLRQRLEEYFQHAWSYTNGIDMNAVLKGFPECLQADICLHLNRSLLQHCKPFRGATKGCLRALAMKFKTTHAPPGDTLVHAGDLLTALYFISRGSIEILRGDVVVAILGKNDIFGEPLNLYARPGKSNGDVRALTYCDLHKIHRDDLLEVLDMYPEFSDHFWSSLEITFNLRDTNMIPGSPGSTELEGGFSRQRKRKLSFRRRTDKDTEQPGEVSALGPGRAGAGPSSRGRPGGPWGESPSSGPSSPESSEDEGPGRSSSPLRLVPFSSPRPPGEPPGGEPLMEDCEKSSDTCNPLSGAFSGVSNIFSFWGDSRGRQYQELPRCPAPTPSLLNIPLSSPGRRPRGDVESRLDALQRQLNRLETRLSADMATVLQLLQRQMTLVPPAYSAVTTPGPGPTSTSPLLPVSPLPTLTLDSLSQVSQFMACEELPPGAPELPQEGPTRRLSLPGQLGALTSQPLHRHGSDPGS

- EC50 (Mu-type opioid receptor): 92.5 µM (inactive)
- EC50 [1]: 2.32 µM (active)
Structure (SMILES): C=CCN1CCc2cc(O)c(O)cc2C(c2ccccc2)C1 (stereo unspecified)
- AC50 [2]: 15.8 µM (inconclusive)

- IC50 (Hexokinase-1 [3]): > 80 µM (inactive)
- IC50 (Hexokinase HKDC1 [4]): > 80 µM (inactive)
Structure (SMILES): CC(=O)NC1C(=O)N(Cc2ccccc2)c2ccc(Cl)cc21 (stereo unspecified)

Structure (SMILES): C[C@H](CN1CCC(n2c(=O)[nH]c3cc(Cl)ccc32)CC1)NC(=O)c1cc2ccccc2[nH]1
- IC50 (Phospholipase D1 [5]): 0.002 µM (active)
- IC50 (Phospholipase D2 [6]): 0.26 µM (active)
- IC50 (Phospholipase D1 [7]): 0.009 µM (active)
- IC50 (Phospholipase D2 [8]): 0.12 µM (active)

- IC50 (Hexokinase-1 [9]): > 80 µM (inactive)
- IC50 (Hexokinase HKDC1 [10]): > 80 µM (inactive)
Structure (SMILES): O=C(Nc1cccc(C(F)(F)F)c1)c1cccc(NC(=O)c2cnccn2)c1
